Test results reported in patent US20160051514A1, “METHODS FOR TREATMENT OF CARDIOMYOPATHY” (THE BRIGHAM AND WOMEN'S HOSPITAL, INC., priority 2013, published 2016).
Entries after “also recorded” stand apart in the source; their conditions may differ.

Legend:
[1] = system: mutant desmoglein-2 (Dsg2) knock-in mice; experiment: Mouse model of AC: mutant desmoglein-2 (Dsg2) knock-in; format: in vivo; conditions: daily injections for 13 weeks
Protocol: (§1) 2 different mouse models of AC were studied: a transgenic line with cardiac myocyte-specific expression of 2057del2 plakoglobin (Plk) and a mutant desmoglein-2 (Dsg2) knock-in model. ECG telemetry and echocardiographic analyses were performed in mutant and wildtype mice treated with daily injections of SB216763 or vehicle for 6 (2057del2 Plk) or 13 (Dsg2) weeks. Hearts excised at selected time points were analyzed for histology, apoptosis and distribution of key intercalated disk proteins.

[2] = system: neonatal rat ventricular myocytes expressing 2057del2 plakoglobin; experiment: Western immunoblotting of total cellular protein content; format: cell-based
Protocol: (§2) Western Immunoblotting: Cells were washed in PBS and scraped from culture dishes in a low ionic strength buffer containing protease inhibitors (1 mM NaHCO3, 5 mM EDTA, 1 mM EGTA, 1 μM leupeptin, 1 μM pepstatin, 0.1 μM aprotinin, 1 mM benzamidine, 1 mM iodoacetamide, 1 mM phenylmethylsulfortylfluoride). Following centrifugation, the pellet was resuspended in the same buffer and aliquots containing 10 μg of total protein were analyzed by SDS polyacrylamide gel electrophoresis. Proteins were detected by enhanced chemiluminescence (ECL. Amersham Corp). All blots were stripped in 62.5 mM Tris-HCl, pH 6.8, 100 mM β-mercapto-ethanol, and re-probed with a mouse monoclonal anti-GAPDH antibody (Fitzgerald) as a loading control.
as §2, with “phenylmethylsulfonylfluoride).” for “phenylmethylsulfortylfluoride).”, “(ECL,” for “(ECL.”

[3] = system: 2057del2 plakoglobin (Plk) transgenic mice; experiment: Mouse model of AC: transgenic cardiac myocyte-specific 2057del2 plakoglobin (Plk); format: in vivo; conditions: daily injections for 6 weeks
Protocol: as §1

[4] = system: nppb::luciferase reporter; experiment: nppb::luciferase reporter chemical screen in 2057del2 plakoglobin zebrafish embryos; format: in vivo; conditions: 72 hpf, 3 μM in the well between 48 and 72 hpf
Protocol: Chemical screening: Chemicals were dissolved in DMSO (Sigma-Aldrich, St. Louis, Mo., USA). Embryos (double homozygous for the 2057del2 plakoglobin mutation and the nppb::luciferase reporter) were arrayed in 96 well plates in HEPES-buffered E3 medium and small molecules were pin-transferred (200 n1) from arrayed chemical libraries. Positive (untreated wild type nppb::luciferase embryos) and negative controls (untreated 2057del2 plakoglobin/nppb::luciferase fish) were included in each plate. […] Each set of compounds was tested in duplicate to improve the discriminatory power of the assay. After being evaluated for viability, an equal volume of long half-life luciferase reagent (Promega Steady Glo™) was added to each well. The plate was then incubated in the dark for 60 min and activities were measured with a Victor 3™ luminometer (Perkin-Elmer). Each measurement was performed in duplicate and results were normalized to the number of fish in the well. Follow-up chemical treatments were performed in HEPES-buffered E3 medium in petri dishes.

[5] = system: zebrafish ventricular myocytes expressing 2057del2 plakoglobin; experiment: Action potentials by current clamp in isolated zebrafish ventricular myocytes; format: cell-based, zebrafish (Danio rerio)
Text: (§3) Zebrafish ventricular myocyte isolation and culture: Zebrafish (Danio rerio) were bred and maintained at 28′C with 14 hr exposure to light and 10 hr to dark (day/night cycle) according to IACUC-approved protocols. Hearts were extracted from anesthetized fish at 21-56 days post-fertilization(dpf) using micro-dissecting tweezers (Roboz Surgical Instruments), washed vigorously in culture medium (M199, primocin, HEPES, L-glutamine, 10% fetal bovine serum) and placed in fresh medium. Ventricles were separated at the atrio-ventricular junction, pooled in a tube containing enzyme solution (HBSS without calcium/magnesium, Trypsin, PCN/Streptomycin, HEPES) at 37° C. and agitated in a thermomixer at 1000-1200 RPM. Dissociated cells were collected every 10 min from supernatants and transferred to tubes containing culture medium and 10% fetal bovine srum to halt trypsinization. Cells were then pelleted by centrifugation, resuspended in fresh culture medium, and seeded on sterile cover slips coated with laminin (20 μg/ml)^11 at 28° C. in a 5% CO2 incubator. After 36 hr, culture medium was changed and unattached cells were removed.
After opening the gigaseal, the microelectrode amplifier (HEKA, EP-10, Lambrecht, Germany) was set to zero holding current and cells were stimulated at a frequency of 0.5 to 1 Hz. Recordings were corrected for a junction potential of 12 mV.^12,13
as §3, with “culture:” for “culture: Zebrafish (Danio rerio) were bred and maintained at 28′C with 14 hr exposure to light and 10 hr to dark (day/night cycle) according to IACUC-approved protocols.”, “3-4 or 5-7 weeks post-fertilization” for “21-56 days post-fertilization(dpf)”, “(calcium/magnesium free-HBSS containing trypsin, penicillin/streptomycin,” for “(HBSS without calcium/magnesium, Trypsin, PCN/Streptomycin,”, “serum” for “srum”, “μg/ml)” for “μg/ml)^11”, “28.5°” for “28°”
Cellular electrophysiology methods: Current clamp experiments in isolated neonatal rat and zebrafish ventricular myocytes were carried out using standard protocols (31). […] After opening the gigaseal, the microelectrode amplifier (HEKA, EP-10, Lambrecht, Germany) was set to zero holding current and cells were stimulated at a frequency of 0.5 to 1 Hz. Recordings were corrected for a junction potential of 12 mV (32,33). The chemical composition of the external and pipette solutions is described in supplemental material.

[6] = 3-4 weeks post-fertilization, 2057del2 plakoglobin + SB2
[7] = 3-4 weeks post-fertilization, Control + SB2
[8] = 5-7 weeks post-fertilization, 2057del2 plakoglobin + SB2, embryos treated at 1 dpf for 6 days (3.0 μM)
[9] = 5-7 weeks post-fertilization, Control + SB2, embryos treated at 1 dpf for 6 days (3.0 μM)
[10] = embryos treated at 1 dpf for 6 days, myocytes studied at 5-7 weeks

`Cn1cc(C2=C(c3ccc(Cl)cc3Cl)C(=O)NC2=O)c2ccccc21` [SB216763] was tested, and the QRS duration [1] was 17.1 ± 2.7 ms, the “Redistribution of junctional signals for Plk, Cx43 and SAP97, and myocardial apoptosis” value [1] was “normalized” and the “Ejection fraction (EF)” value ([1]; echocardiography) was 73.9±6.9%. For the same molecule, the “Fractional shortening (FS)” value ([1]; echocardiography) was 50.2±6.6%, the “Total cellular content of Nav1.5” value [2] was “nor did exposure to SB216763 affect overall levels of Nav1.5; also recorded: without an apparent change in total cellular content of SAP97 and Nav1.5” and the “Total cellular content of SAP97” value [2] was “without apparent changes in the total amount of SAP97; also recorded: without an apparent change in total cellular content of SAP97 and Nav1.5”. For the same molecule, the “Total cellular content of plakoglobin” value [2] was “no apparent change in the total cellular content of plakoglobin; also recorded: had no apparent effect on plakoglobin expression levels”, the “Total cellular content / expression of Cx43” value ([2]; control and transfected myocytes, listed as SB2) was “Increased Cx43 expression was observed” and the “Myocyte necrosis, fibrosis and inflammation” value [3] was “nearly absent”. The “Redistribution of junctional signals for Plk, Cx43 and SAP97, and myocardial apoptosis” value [3] was “normalized”, the PVCs ([3]; ECG telemetry) was 2.8 ± 0.6 min⁻¹ and the “nppb expression / nppb::luciferase activity” value [4] was “normalizer of the nppb response; also recorded: reduced nppb expression”. For the same molecule, the “nppb expression / nppb::luciferase activity” value ([4]; listed as SB2) was “reduced nppb expression”, the “nppb expression / nppb::luciferase activity” value ([4]; listed as SB216736) was “normalized nppb::luciferase activity” and the Action potential duration [5, 6] was 175 ms. The Maximal upstroke velocity [5, 6] was 22 V/s, the Resting membrane potential [5, 6] was −75 mV and the Action potential duration [5, 7] was 173 ms. The Maximal upstroke velocity [5, 7] was 35 V/s, the Resting membrane potential [5, 7] was −79 mV and the Action potential duration [5, 8] was 154 ms. It also gave a Maximal upstroke velocity [5, 8] of 66 V/s, a Resting membrane potential [5, 8] of −78 mV and an Action potential duration [5, 9] of 195 ms. For the same molecule, the Maximal upstroke velocity [5, 9] was 53 V/s, the Resting membrane potential [5, 9] was −77 mV and the “Effect on APD80% in fish expressing mutant plakoglobin” value [5, 10] was “shortened APD8O% beyond control levels; also recorded: shortened APD80% beyond control levels”. The “Effect on RMP and dV/dtmax in fish expressing mutant plakoglobin” value [5, 10] was “normalized RMP and dV/dtmax”, the “Effect on action potentials in myocytes from control fish” value [5, 10] was “had no effect on action potentials; also recorded: did not affect action potentials” and the “Effect on action potential remodeling, short-term exposure of isolated cells” value ([5]; isolated myocytes from transgenic fish treated in culture for 36 hr) was “normalized action potential remodeling”.
